Measured values reported in publication PMC6410202, “Dual Action of the PN159/KLAL/MAP Peptide: Increase of Drug Penetration across Caco-2 Intestinal Barrier Model by Modulation of Tight Junctions and Plasma Membrane Permeability” (Pharmaceutics, 2019).

How the values were obtained:
Caco-2 cells [1] = assay: Impedance measurement (RTCA), Caco-2 cells; type: cell-based; settings: PN159 1-100 μM, 1-h or one-day treatment
Experimental: Kinetics of epithelial cell reaction to PN159 peptide treatment was monitored by impedance measurement at 10 kHz (RTCA-SP instrument, ACEA Biosciences, San Diego, CA, USA). Impedance measurement is non-invasive, label-free and real time, and linearly correlates with adherence, growth, number and viability of cells. For background measurements 50 μL cell culture medium was added to the wells, then cells were seeded at a density of 6 × 10^3 cells/well to the coated 96-well plates with integrated gold electrodes (E-plate 96, ACEA Biosciences). Cells were cultured for 5–7 days in a CO2 incubator at 37 °C and monitored every 10 min until the end of experiments. Cells were treated with PN159 peptide solutions at 1, 3, 10, 30 and 100 μM concentrations at the beginning of the plateau phase of growth and the effects were followed for 1-h or 24 h. To measure cell recovery, peptide solutions were changed to culture medium and the impedance was monitored for one week. Culture medium was changed every 2 days. Caco-2 cells were also treated with the three selected CPPs, Pep-1, R8 and φ-peptide, at 100 μM concentrations at the beginning of the plateau phase of cell growth for 24-h. Triton X-100 detergent (1 mg/mL) was used as a reference compound to induce cell death. Cell index was defined as Rn-Rb at each time point of measurement, where Rn is the cell-electrode impedance of the well when it contains cells and Rb is the background impedance of the well with the medium alone.

Caco-2 cells [2] = assay: Cellular uptake of Bodipy FL labeled PN159, confocal microscopy; type: cell-based, human; settings: Bodipy FL labeled PN159, 10 µM, 5 min, claudin-4 immunostaining
Experimental: The Caco-2 cells were grown on glass bottomed petri dishes coated with collagen to visualize the cellular uptake of the Bodipy FL maleimide labeled (BODIPY FL N-(2-aminoethyl) maleimide, Thermo Fischer, Waltham, MA, USA) PN159 peptide. The cells were treated with peptide at concentrations of 1, 3 and 10 µM for 5 min. To stain the cell nuclei the H33342dye (1 μg/mL) was used before peptide treatment for 10 min. After peptide incubation the living cells were washed three times with Ringer–Hepes buffer supplemented with 1%fetal bovine serum (FBS) and examined immediately with a Visitron spinning disk confocal system.
In the case of the co-localization analysis the labeled PN159 peptide was used in 10 µM for 5 min. Then the cellular uptake cells were fixed and immunohistochemistry was performed for claudin-4. The samples were mounted and visualized by a Leica TCS SP5 confocal laser-scanning microscope.

Caco-2 cell layers = assay: Transepithelial electrical resistance (TEER) of Caco-2 cell layers; type: cell-based, human; settings: for TEER, % of the control value: PN159 10 μM
Experimental: For the measurement of barrier integrity Caco-2 cells were seeded onto culture inserts (Transwell 3460, polyester membrane, 0.4 µm pore size, Corning Costar) and cultured for three weeks. Transepithelial electrical resistance (TEER) reflects the tightness of the intercellular junctions. […]. Resistance of cell-free inserts (130 Ω × cm^2) was subtracted from the measured values. TEER values were measured before and right after permeability experiments). TEER values indicated the integrity and paracellular permeability of cell layers for ions. The TEER of Caco-2 monolayers was 1302 ± 49 Ω × cm^2 (mean ± SD; n = 46) after 3 weeks culturing. For the recovery experiment, after changing the 10 μM peptide solutions to culture medium, TEER was monitored for one day.

Caco-2 cells [3] = assay: Transmission electron microscopy of tight junctions; type: cell-based, human; settings: 30 min
Experimental: Cells grown on culture inserts were treated with 10 μM PN159 peptide for 30 min and fixed immediately after treatment or after a 1-day recovery. Cells were briefly washed with phosphate-buffered saline (PBS) and fixed with 3% paraformaldehyde containing 0.5% glutaraldehyde in cacodylate buffer (pH 7.4) for 30 min at 4 °C. After washing with the buffer several times, cells were postfixed in 1% OsO4 for 20 min. Following a rinse with distilled water, the cells were block stained with 1% uranyl acetate in 50% ethanol for 20 min, dehydrated in graded ethanol and after the last step of dehydration inserts were placed in the 1:1 mixture of ethanol and Taab 812 (Taab; Aldermaston, Berks, UK) for 10 min at 30°C. Finally, the membranes of the culture inserts with the cells were removed from their support and embedded in Taab 812. Polymerization was performed overnight at 60°C. Ultrathin sections were cut perpendicularly for the membrane using a Leica EM UC6 ultramicrotome (Nussloch, Germany) and picked up on formvar-coated single-slot copper grids. […] Altogether, 105 non-overlapping images from the 3 groups at the same magnification were analyzed for the presence or absence of tight junctions (control group n = 28; PN159 group n = 42; recovery group n = 35).

Caco-2 epithelial cells = assay: Ethidium homodimer-1 staining, cell membrane integrity; type: cell-based, human; settings: PN159 1 to 10 μM, 24-h treatments
Experimental: Besides the junctional effects, changes in the cell membrane integrity were also examined by ethidium homodimer-1 (856.77 Da) staining of Caco-2 epithelial cells after 24-h treatments in the concentration range of 1 to 10 μM.
Figure 7 (A) Fluorescent staining of juntional protein zonula occludens-1 and double staining of cell nuclei in Caco-2 cells after 1-h treatment with PN159 peptide. Green color: immunostaining for ZO-1. Red color: staining by ethidium homodimer-1 (EH-1), indicating increased membrane permeability.Blue color: staining of all cell nuclei by H33342. Bar = 10 µm. (B) Confocal microscopy images of living Caco-2 epithelial cells incubated with Bodipy FL labeled PN159 peptide in different concentrations for 5 min at 37°C. Green color: BodipyFL-PN159 peptide. Blue color: staining of cell nuclei. Bar = 10 µm.

CC(C)C[C@H](NC(=O)[C@H](C)NC(=O)[C@H](CCCCN)NC(=O)[C@H](CC(C)C)NC(=O)[C@H](C)NC(=O)[C@H](CC(C)C)NC(=O)[C@H](CCCCN)NC(=O)[C@H](CC(C)C)NC(=O)[C@H](C)NC(=O)[C@H](CC(C)C)NC(=O)[C@@H](N)CCCCN)C(=O)N[C@@H](CCCCN)C(=O)N[C@@H](C)C(=O)N[C@@H](C)C(=O)N[C@@H](CC(C)C)C(=O)N[C@@H](CCCCN)C(=O)N[C@@H](CC(C)C)C(=O)N[C@@H](C)C(N)=O [PN159]
Cell impedance (normalized cell index) (Caco-2 cells [1]): only the two highest peptide concentrations decreased the cell impedance
Co-localization with claudin-4 (Caco-2 cells [2]): visible in the cytoplasm and also in the cell membrane at the level of intercellular junctions
TEER recovery (Caco-2 cell layers; 20 h after removal of PN159 (10 μM, 30 min)): complete recovery
TEER, % of the control value (Caco-2 cell layers; 1-min treatment): 42%
TEER, % of the control value (Caco-2 cell layers; 5 min): 16%
TEER, % of the control value (Caco-2 cell layers; 15 min): 2.7%
TEER, % of the control value (Caco-2 cell layers; 30 min): 1.4%
Decrease in TEER (Caco-2 cell layers; PN159 10 and 30 μM, 1-h treatment): 80–90%
Resistance of epithelial cell layers (TEER) (Caco-2 cell layers; all tested concentrations (1, 3, 10, 30 μM), 1-h treatment): significantly decreased the resistance
Ultrastructure of epithelial junctions (Caco-2 cells [3]; 1-day recovery after PN159 10 μM): became similar to control cells
Tight junctions by electron microscopy (Caco-2 cells [3]; PN159 10 μM): no junctions were observed
Plasma membrane entry of ethidium homodimer-1 (Caco-2 epithelial cells): Only the highest PN159 concentration caused plasma membrane entry of the red fluorescent dye
